Measured values published in patent EP4603105A1, “PHARMACEUTICAL COMPOSITION CONTAINING CYCLIC COMPOUND HAVING SELECTIVE KRAS INHIBITORY EFFECT AGAINST HRAS AND NRAS” (CHUGAI SEIYAKU KABUSHIKI KAISHA, priority 2022, dated 2024).

Assays:
[1] = biological target: GDP-bound KRAS wild-type protein (Homo sapiens, UniProt P01116); experiment: Binding to KRAS by surface plasmon resonance (SPR), dissociation constant KD; conditions: Single Cycle Kinetics
How it was run: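 Each cycle, GDP-bound biotin-Avi RAS was captured (~100–300 RU), compound concentrations were injected low to high for 75 s each at 100 µL/min, then the chip was regenerated. Buffer: HBS pH 7.4, 10 mM MgCl2, 10 µM GDP, 1 mM DTT, 4% DMSO; 30°C. KD from a 1:1 binding model.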

[2] = biological target: GDP-bound NRAS wild-type protein (Homo sapiens, UniProt P01111); experiment: Binding to NRAS by surface plasmon resonance (SPR), KD and KD ratio to KRAS; conditions: ratio of KD for GDP-bound NRAS wild-type protein to KD for KRAS
How it was run: (§1)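 Biotinylated GDP-bound RAS was captured at about 100–300 RU. Running buffer: HBS pH 7.4, 10 mM MgCl2, 10 µM GDP, 1 mM DTT, 0.01% Tween 20, 4% DMSO.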

HRAS wild-type protein = HRAS wild-type protein (Homo sapiens, UniProt P01112); experiment: Binding to HRAS by surface plasmon resonance (SPR), KD and KD ratio to KRAS; conditions: ratio of KD for HRAS wild-type protein to KD for KRAS
How it was run: as §1

[3] = test system: human lung cancer strain NCI-H441; experiment: NCI-H441 cell proliferation inhibitory activity (CellTiter-Glo, 4 days); assay type: cell-based; conditions: NCI-H441 cells, 4 days, read-out: NCl-H441 IC50
How it was run: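 Step one: dispense the test compound in serial DMSO dilutions. Step three: add the reagent and measure […].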

Chain of GDP-bound NRAS wild-type protein (P01111 whole entry): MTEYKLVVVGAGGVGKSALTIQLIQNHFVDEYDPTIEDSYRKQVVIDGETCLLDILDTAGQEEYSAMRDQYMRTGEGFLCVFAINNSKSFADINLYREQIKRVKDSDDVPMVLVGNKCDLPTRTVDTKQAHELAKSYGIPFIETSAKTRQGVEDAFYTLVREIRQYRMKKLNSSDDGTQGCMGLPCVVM
Chain of HRAS wild-type protein (P01112 whole entry): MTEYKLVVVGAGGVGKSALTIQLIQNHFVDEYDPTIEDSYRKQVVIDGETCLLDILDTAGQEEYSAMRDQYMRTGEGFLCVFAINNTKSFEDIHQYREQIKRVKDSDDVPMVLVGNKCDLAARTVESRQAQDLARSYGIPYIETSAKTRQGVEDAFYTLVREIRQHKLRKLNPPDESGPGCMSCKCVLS
Chain of GDP-bound KRAS wild-type protein (P01116 1-188 isoform P01116-2): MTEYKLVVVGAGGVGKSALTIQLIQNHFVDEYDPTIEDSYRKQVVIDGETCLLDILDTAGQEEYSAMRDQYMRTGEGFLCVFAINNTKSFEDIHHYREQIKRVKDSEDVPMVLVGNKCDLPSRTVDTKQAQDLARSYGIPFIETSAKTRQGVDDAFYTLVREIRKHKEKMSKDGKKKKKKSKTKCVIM

| SMILES | Kd [1] [nM] | IC50 [3] [nM] | NRAS /KRAS [2] | HRAS /KRAS (HRAS wild-type protein) |
| --- | --- | --- | --- | --- |
| CCC[C@H]1C(=O)N[C@@H](C2CCCC2)C(=O)N(C)CC(=O)N(C)[C@H]2C/C=C\CCN(C2=O)[C@@H](Cc2ccc(C)cc2)C(=O)N(C)CC(=O)N[C@@H](CCc2ccc(C(F)(F)F)c(Cl)c2)C(=O)N2CC3(CC3)C[C@H]2C(=O)NC2(CCC2)C(=O)N(C)[C@@H](C(CC)CC)C(=O)N(C)[C@H](C(=O)N(C)C)CC(=O)N1C [PP3432] | 0.71 | 57.7 | AA (a compound having 20 or more is denoted as AA) | A (a compound having 10 or more and less than 20 is denoted as A) |
| CCC[C@H]1C(=O)N[C@@H]([C@@H](C)CC)C(=O)N(C)CC(=O)N(C)[C@H]2C/C=C\CCN(C2=O)[C@@H](Cc2ccc(C(F)(F)F)cc2)C(=O)N(C)CC(=O)N[C@@H](CCc2cc(F)c(C(F)(F)F)c(F)c2)C(=O)N2CC3(CC3)C[C@H]2C(=O)NC2(CCC2)C(=O)N(C)[C@@H](C2CCCC2)C(=O)N(C)[C@H](C(=O)N(C)C)CC(=O)N1C [PP3436] | 0.059 | 4.6 | A (a compound having 10 or more and less than 20 is denoted as A) | A (a compound having 10 or more and less than 20 is denoted as A) |
| CCCO[C@@H]1C[C@H]2C(=O)NC3(CC(C)(C)C3)C(=O)N(C)[C@@H](C3CCCC3)C(=O)N(C)[C@H](C(=O)N(C)CC)CC(=O)N[C@@H](COCC)C(=O)N[C@@H]([C@@H](C)CC)C(=O)N(C3CC3)CC(=O)N(C)[C@H]3C/C=C\CCN(C3=O)[C@@H](Cc3ccc(C)cc3)C(=O)N(C)CC(=O)N[C@@H](CCc3ccc(C(F)(F)F)c(OC)c3)C(=O)N2C1 [PP3437] | 1.3 | 51.6 | AA (a compound having 20 or more is denoted as AA) | A (a compound having 10 or more and less than 20 is denoted as A) |
| CCCO[C@@H]1C[C@H]2C(=O)NC3(CC(C)(C)C3)C(=O)N(C)[C@@H](C3CCCC3)C(=O)N(C)[C@H](C(=O)N(C)CC)CC(=O)N[C@@H](COCC)C(=O)N[C@@H]([C@@H](C)CC)C(=O)N3CCC[C@H]3C(=O)N(C)[C@H]3C/C=C\CCN(C3=O)[C@@H](Cc3ccc(C)cc3)C(=O)N(C)CC(=O)N[C@@H](CCc3ccc(C(F)(F)F)c(OC)c3)C(=O)N2C1 [PP3439] | 1.7 | 148 | A (a compound having 10 or more and less than 20 is denoted as A) | A (a compound having 10 or more and less than 20 is denoted as A) |
| CCC[C@H]1C(=O)N[C@@H]([C@@H](C)CC)C(=O)N(C)CC(=O)N(C)[C@H]2C/C=C\CCN(C2=O)[C@@H](Cc2ccc(C(F)(F)F)cc2)C(=O)N(C)CC(=O)N[C@@H](CCc2ccc(C(F)(F)F)c(Cl)c2)C(=O)N2CC3(CC3)C[C@H]2C(=O)NC2(CCC2)C(=O)N(C)[C@@H](C2CCCC2)C(=O)N(C)[C@H](C(=O)N(C)C)CC(=O)N1C [PP3440] | 0.047 | 12.1 | AA (a compound having 20 or more is denoted as AA) | A (a compound having 10 or more and less than 20 is denoted as A) |
| CCCO[C@@H]1C[C@H]2C(=O)NC3(CC(C)(C)C3)C(=O)N(C)[C@@H](C3CCCC3)C(=O)N(C)[C@H](C(=O)N(C)CC)CC(=O)N[C@@H](COCC)C(=O)N[C@@H]([C@@H](C)CC)C(=O)N3C[C@@H](F)C[C@H]3C(=O)N(C)[C@H]3C/C=C\CCN(C3=O)[C@@H](Cc3ccc(C)cc3)C(=O)N(C)CC(=O)N[C@@H](CCc3ccc(C(F)(F)F)c(OC)c3)C(=O)N2C1 [PP3443] | 0.75 | 73.5 | A (a compound having 10 or more and less than 20 is denoted as A) | A (a compound having 10 or more and less than 20 is denoted as A) |
| CCO[C@@H]1C[C@H]2C(=O)NC3(CC(C)(C)C3)C(=O)N(C)[C@@H](C3CCCC3)C(=O)N(C)[C@H](C(=O)N(C)C)CC(=O)N[C@@H](CC(C)C)C(=O)N[C@@H]([C@@H](C)CC)C(=O)N(C)CC(=O)N(C)[C@H]3C/C=C\CCN(C3=O)[C@@H](Cc3ccc(C(F)(F)F)cc3)C(=O)N(C)CC(=O)N[C@@H](CCc3ccc(C(F)(F)F)c(OC)c3)C(=O)N2C1 [PP3445] | 0.13 | 20.2 | A (a compound having 10 or more and less than 20 is denoted as A) | A (a compound having 10 or more and less than 20 is denoted as A) |
| CCC[C@@H]1NC(=O)C[C@@H](C(=O)N(C)C)N(C)C(=O)[C@H](C2CCCC2)N(C)C(=O)C2(CC(C)(C)C2)NC(=O)[C@@H]2C[C@@H](OCC)CN2C(=O)[C@H](CCc2ccc(C(F)(F)F)c(OC)c2)NC(=O)CN(C)C(=O)[C@H](Cc2ccc(C(F)(F)F)cc2)N2CC/C=C\C[C@@H](C2=O)N(C)C(=O)CN(C)C(=O)[C@H]([C@@H](C)CC)NC1=O [PP3447] | 0.16 | 19.1 | A (a compound having 10 or more and less than 20 is denoted as A) | A (a compound having 10 or more and less than 20 is denoted as A) |
| CCCOC[C@@H]1NC(=O)C[C@@H](C(=O)N(C)CCC)N(C)C(=O)[C@H](C2CCCC2)N(C)C(=O)C2(CC(C)(C)C2)NC(=O)[C@@H]2C[C@@H](OCC)CN2C(=O)[C@H](CCc2ccc(C(F)(F)F)c(OC)c2)NC(=O)CN(C)C(=O)[C@H](Cc2ccc(C(F)(F)F)cc2)N2CC/C=C\C[C@@H](C2=O)N(C)C(=O)CN(C)C(=O)[C@H]([C@@H](C)CC)NC1=O [PP3449] | 0.25 | 31.9 | A (a compound having 10 or more and less than 20 is denoted as A) | A (a compound having 10 or more and less than 20 is denoted as A) |

Further compounds by falling Kd [1], results first:

| Kd [1] [nM] | IC50 [3] [nM] | SMILES | NRAS /KRAS [2] | HRAS /KRAS (HRAS wild-type protein) |
| --- | --- | --- | --- | --- |
| 0.76 | 26.8 | CCC[C@H]1C(=O)N[C@@H](C2CCCC2)C(=O)N(C)CC(=O)N(C)[C@H]2C/C=C\CCN(C2=O)[C@@H](Cc2ccc(C)cc2)C(=O)N(C)CC(=O)N[C@@H](CCc2ccc(C(F)(F)F)c(Cl)c2)C(=O)N2CC3(CC3)C[C@H]2C(=O)NC2(CCC2)C(=O)N(C)[C@@H]([C@@H](C)CC)C(=O)N(C)[C@H](C(=O)N(C)C)CC(=O)N1C [PP3434] | A (a compound having 10 or more and less than 20 is denoted as A) | A (a compound having 10 or more and less than 20 is denoted as A) |
| 0.51 | 43.3 | CCCOC[C@@H]1NC(=O)C[C@@H](C(=O)N(C)CCC)N(C)C(=O)[C@H](C2CCCC2)N(C)C(=O)C2(CC(C)(C)C2)NC(=O)[C@@H]2C[C@@H](OCC)CN2C(=O)[C@H](CCc2ccc(C(F)(F)F)c(Cl)c2)NC(=O)CN(C)C(=O)[C@H](Cc2ccc(C(F)(F)F)cc2)N2CC/C=C\C[C@@H](C2=O)N(C)C(=O)CN(C)C(=O)[C@H]([C@@H](C)CC)NC1=O [PP3450] | A (a compound having 10 or more and less than 20 is denoted as A) | A (a compound having 10 or more and less than 20 is denoted as A) |
| 0.2 | 21.3 | CCCC[C@@H]1NC(=O)C[C@@H](C(=O)N(C)C)N(C)C(=O)[C@H](C2CCCC2)N(C)C(=O)C2(CC(C)(C)C2)NC(=O)[C@@H]2C[C@@H](OCC)CN2C(=O)[C@H](CCc2ccc(C(F)(F)F)c(OC)c2)NC(=O)CN(C)C(=O)[C@H](Cc2ccc(C(F)(F)F)cc2)N2CC/C=C\C[C@@H](C2=O)N(C)C(=O)CN(C)C(=O)[C@H]([C@@H](C)CC)NC1=O [PP3446] | A (a compound having 10 or more and less than 20 is denoted as A) | A (a compound having 10 or more and less than 20 is denoted as A) |
| 0.2 | 18.4 | CCO[C@@H]1C[C@H]2C(=O)NC3(CC(C)(C)C3)C(=O)N(C)[C@@H](C3CCCC3)C(=O)N(C)[C@H](C(=O)N(C)C)CC(=O)N[C@@H](CC3CC3)C(=O)N[C@@H]([C@@H](C)CC)C(=O)N(C)CC(=O)N(C)[C@H]3C/C=C\CCN(C3=O)[C@@H](Cc3ccc(C(F)(F)F)cc3)C(=O)N(C)CC(=O)N[C@@H](CCc3ccc(C(F)(F)F)c(OC)c3)C(=O)N2C1 [PP3448] | A (a compound having 10 or more and less than 20 is denoted as A) | A (a compound having 10 or more and less than 20 is denoted as A) |
| 0.19 | 13.6 | CCC[C@H]1C(=O)N[C@@H](C2CCCC2)C(=O)N(C)CC(=O)N(C)[C@H]2C/C=C\CCN(C2=O)[C@@H](Cc2ccc(C)cc2)C(=O)N(C)CC(=O)N[C@@H](CCc2ccc(C(F)(F)F)c(Cl)c2)C(=O)N2CC3(CC3)C[C@H]2C(=O)NC2(CCC2)C(=O)N(C)[C@@H](C2CCCC2)C(=O)N(C)[C@H](C(=O)N(C)C)CC(=O)N1C [PP3444] | AA (a compound having 20 or more is denoted as AA) | A (a compound having 10 or more and less than 20 is denoted as A) |
| 0.083 | 7.7 | CCC[C@H]1C(=O)N[C@@H]([C@@H](C)CC)C(=O)N(C)CC(=O)N(C)[C@H]2C/C=C\CCN(C2=O)[C@@H](Cc2ccc(C)cc2)C(=O)N(C)CC(=O)N[C@@H](CCc2ccc(C(F)(F)F)c(Cl)c2)C(=O)N2CC3(CC3)C[C@H]2C(=O)NC2(CCC2)C(=O)N(C)[C@@H](C2CCCC2)C(=O)N(C)[C@H](C(=O)N(C)C)CC(=O)N1C [PP3442] | A (a compound having 10 or more and less than 20 is denoted as A) | B (a compound having 3 or more and less than 10 is denoted as B) |
| 0.062 | 8.9 | CCC[C@H]1C(=O)N[C@@H]([C@@H](C)CC)C(=O)N(C)CC(=O)N(C)[C@H]2C/C=C\CCN(C2=O)[C@@H](Cc2ccc(C(F)(F)F)cc2)C(=O)N(C)CC(=O)N[C@@H](CCc2ccc(C(F)(F)F)c(OC)c2)C(=O)N2CC3(CC3)C[C@H]2C(=O)NC2(CCC2)C(=O)N(C)[C@@H](C2CCCC2)C(=O)N(C)[C@H](C(=O)N(C)C)CC(=O)N1C [PP3438] | A (a compound having 10 or more and less than 20 is denoted as A) | A (a compound having 10 or more and less than 20 is denoted as A) |
